Results: patent US20210244735A1, “COMPOSITIONS AND METHODS FOR TREATING MYELOFIBROSIS” (Impact Biomedicines, Inc., priority 2010, published 2021)
Entries after “also recorded” stand apart in the source; their conditions may differ. Where a name gives a salt, the structure may show the parent alone. Read-outs that look alike come from different tables or passages of the source. Marks after values point to notes of the source that are not given here.

Tested on: subjects with MF
[1] = patients who started at ≥680 mg
[2] = started at ≥680 mg, 24 patients not requiring RBC transfusions at baseline
[3] = subject 106-024, 800/680 mg/day, onset day 87, recovered/resolved
[4] = treatment-emergent laboratory finding, MTD subjects (N=40)
[5] = treatment-emergent, MTD subjects (N=40)

Cc1cnc(Nc2ccc(OCCN3CCCC3)cc2)nc1Nc1cccc(S(=O)(=O)NC(C)(C)C)c1 [TG101348, N-tert-butyl-3-[(5-methyl-2-{[4-(2-pyrrolidin-1-ylethoxy)phenyl]amino}pyrimidin-4-yl)amino]benzenesulfonamide dihydrochloride monohydrate]
Grades 3/4 asymptomatic increase in creatinine (overall): 0%
Grades 3/4 asymptomatic increase in serum lipase (overall): 10%
Gr1/2 serum creatinine elevation [1]: 38%
Gr1/2 transaminitis [1]: 38%
Gr3 neutropenia [1]: 15%
Gr3 thrombocytopenia [1]: 20%
Gr4 neutropenia [1]: 0%
Gr4 thrombocytopenia [1]: 10%
asymptomatic hyperlipasemia [1]: 33%
dose-limiting toxicity (DLT) (seen at 800 mg/day, dihydrochloride monohydrate): asymptomatic grade 3 or 4 amylasemia/lipasemia that was reversible; also recorded: asymptomatic grade 3 or 4 hyperamylasemia (with or without hyperlipasemia) that was reversible
Grade 3 anemia [2]: 42 % of patients
Grade 4 anemia [2]: 8 % of patients
serious adverse event Neutropenia, CTCAE Severity Grade (subject 101-047, 680/680 mg/day, onset day 52, recovered/resolved): 2
serious adverse event Depression, CTCAE Severity Grade (subject 104-015, 360/520 mg/day, onset day 256, permanently discontinued, not recovered/not resolved): 3*
serious adverse event Hyperlipasemia, CTCAE Severity Grade (subject 105-013, 240/0 mg/day, onset day 356, recovered/resolved): 4
serious adverse event Thrombocytopenia, CTCAE Severity Grade (subject 105-013, starting dose/dose at event 240/360 mg/day, onset day 215, recovered/resolved): 4
serious adverse event Gallbladder pain, CTCAE Severity Grade (subject 105-056, 680/520 mg/day, onset day 95, recovered/resolved with sequelae): 3
serious adverse event Cerebrovascular accident, CTCAE Severity Grade (subject 105-056, 680/680 mg/day, onset day 22, recovered/resolved): 4
serious adverse event Hyperlipasemia, CTCAE Severity Grade (subject 105-059, 680/520 mg/day, onset day 28, recovered/resolved): 3
serious adverse event Hyperlipasemia, CTCAE Severity Grade (subject 105-059, 680/680 mg/day, onset day 8, recovered/resolved): 3
serious adverse event Dehydration, CTCAE Severity Grade (subject 106-024, 800/400 mg/day, onset day 474, recovered/resolved): 3
serious adverse event Tumor lysis syndrome, CTCAE Severity Grade (subject 106-024, 800/440 mg/day, onset day 366, recovered/resolved): 3
serious adverse event Dehydration, CTCAE Severity Grade [3]: 2
serious adverse event Diarrhea, CTCAE Severity Grade [3]: 3
serious adverse event Nausea, CTCAE Severity Grade [3]: 2
serious adverse event Vomiting, CTCAE Severity Grade [3]: 2
serious adverse event Pleuritic pain, CTCAE Severity Grade (subject 106-033, 680/680 mg/day, onset day 8, recovered/resolved): 2
serious adverse event Dehydration, CTCAE Severity Grade (subject 106-045, 680/440 mg/day, onset day 170, recovered/resolved): 3
cytokine rebound upon discontinuation without prior dose reduction or tapering (subjects that were discontinued): did not experience “cytokine rebound”
emergence of transfusion requirement (subjects who initiated treatment at 680 mg/day): 72%
emergence of transfusion requirement (subjects who initiated treatment at 240-520 mg/day): 33%
ALT increased Grade 2 [4]: 8 (20%) subjects (%)
ALT increased Grade 3 [4]: 2 (5%) subjects (%)
ALT increased Grade 4 [4]: 0 subjects (%)
AST increased Grade 2 [4]: 5 (13%) subjects (%)
AST increased Grade 3 [4]: 1 (3%) subjects (%)
AST increased Grade 4 [4]: 0 subjects (%)
Creatinine increased Grade 2 [4]: 11 (28%) subjects (%)
Creatinine increased Grade 3 [4]: 0 subjects (%)
Creatinine increased Grade 4 [4]: 0 subjects (%)
Hyperamylasemia Grade 2 [4]: 0 subjects (%)
Hyperamylasemia Grade 3 [4]: 1 (3%) subjects (%)
Hyperamylasemia Grade 4 [4]: 1 (3%) subjects (%)
Hyperkalemia Grade 2 [4]: 3 (8%) subjects (%)
Hyperkalemia Grade 3 [4]: 2 (5%) subjects (%)
Hyperkalemia Grade 4 [4]: 1 (3%) subjects (%)
Hyperlipasemia Grade 2 [4]: 4 (10%) subjects (%)
Hyperlipasemia Grade 3 [4]: 3 (8%) subjects (%)
Hyperlipasemia Grade 4 [4]: 2 (5%) subjects (%)
Hypocalcemia Grade 2 [4]: 8 (20%) subjects (%)
Hypocalcemia Grade 3 [4]: 3 (8%) subjects (%)
Hypocalcemia Grade 4 [4]: 0 subjects (%)
Abdominal pain Grade 1 [5]: 5 (13%) subjects (%)
Abdominal pain Grade 2 [5]: 0 subjects (%)
Abdominal pain Grade 3 [5]: 0 subjects (%)
Abdominal pain Grade 4 [5]: 0 subjects (%)
Anorexia Grade 1 [5]: 7 (18%) subjects (%)
Anorexia Grade 2 [5]: 0 subjects (%)
Anorexia Grade 3 [5]: 1 (3%) subjects (%)
Anorexia Grade 4 [5]: 0 subjects (%)
Constipation Grade 1 [5]: 6 (15%) subjects (%)
Constipation Grade 2 [5]: 1 (3%) subjects (%)
Constipation Grade 3 [5]: 0 subjects (%)
Constipation Grade 4 [5]: 0 subjects (%)
Contusion Grade 1 [5]: 5 (13%) subjects (%)
Contusion Grade 2 [5]: 0 subjects (%)
Contusion Grade 3 [5]: 0 subjects (%)
Contusion Grade 4 [5]: 0 subjects (%)
Diarrhea Grade 1 [5]: 21 (53%) subjects (%)
Diarrhea Grade 2 [5]: 4 (10%) subjects (%)
Diarrhea Grade 3 [5]: 5 (13%) subjects (%)
Diarrhea Grade 4 [5]: 0 subjects (%)
Edema peripheral Grade 1 [5]: 7 (18%) subjects (%)
Edema peripheral Grade 2 [5]: 1 (3%) subjects (%)
Edema peripheral Grade 3 [5]: 0 subjects (%)
Edema peripheral Grade 4 [5]: 0 subjects (%)
Fatigue Grade 1 [5]: 2 (5%) subjects (%)
Fatigue Grade 2 [5]: 3 (8%) subjects (%)
Fatigue Grade 3 [5]: 1 (3%) subjects (%)
Fatigue Grade 4 [5]: 0 subjects (%)
Headache Grade 1 [5]: 4 (10%) subjects (%)
Headache Grade 2 [5]: 1 (3%) subjects (%)
Headache Grade 3 [5]: 0 subjects (%)
Headache Grade 4 [5]: 0 subjects (%)
Nausea Grade 1 [5]: 20 (50%) subjects (%)
Nausea Grade 2 [5]: 6 (15%) subjects (%)
Nausea Grade 3 [5]: 2 (5%) subjects (%)
Nausea Grade 4 [5]: 0 subjects (%)
Neutropenia Grade 3 [5]: 6 (15%) subjects (%)
Neutropenia Grade 4 [5]: 0 subjects (%)
Proteinuria Grade 1 [5]: 2 (5%) subjects (%)
Proteinuria Grade 2 [5]: 3 (8%) subjects (%)
Proteinuria Grade 3 [5]: 0 subjects (%)
Proteinuria Grade 4 [5]: 0 subjects (%)
Thrombocytopenia Grade 3 [5]: 8 (20%) subjects (%)
Thrombocytopenia Grade 4 [5]: 5 (13%) subjects (%)
Vomiting Grade 1 [5]: 20 (50%) subjects (%)
Vomiting Grade 2 [5]: 7 (18%) subjects (%)
Vomiting Grade 3 [5]: 1 (3%) subjects (%)
Vomiting Grade 4 [5]: 0 subjects (%)
